Laboratory results from patent US20080161232A1, “C5a Receptor Antagonist” (JERINI AG, priority 2005, published 2008).
Like-named read-outs stand apart in the source and are kept apart here. Starred links: 1 amine or outer side, 2 acyl side, 3 side chain; linkers in the order of their positions; H or OH if unused. Positions of bridges follow the written chain, without caps; N, C: chain ends. Non-standard residues stand in square brackets, D forms with d. Residues, ends and D or L forms follow the SMILES beside them. X1 = COC1O[C@H](C(=O)[*:2])[C@@H](O)[C@H](O)[C@H]1N[*:1]; Orn(2-imidazolinyl) = N[C@@H](CCCNC1=NCCN1)C(=O)O; Bta = N[C@@H](Cc1csc2ccccc12)C(=O)O; dCha = N[C@H](CC1CCCCC1)C(=O)O; Nle = CCCC[C@H](N)C(=O)O; Orn = NCCC[C@H](N)C(=O)O

Columns and labels:
[1] = Solubility determination for selected C5aR-antagonists; format: physicochemical; details: for Solubility in 20 mM HEPES pH 7.4 (% of 200 μM): 20 mM HEPES pH 7.4, 24 h at RT
Procedure: Solubility Determination for Selected C5aR-Antagonists
[…] The undissolved part was removed by centrifugation after 24 h. The UV-absorption of the supernatant was measured and compared to a reference solution of the compound in 60% MeOH.

human C5aR(CD88) [2] = molecular target: T1, human C5aR(CD88) (Homo sapiens, UniProt P21730); experiment: Determination of the IC50 value in an enzyme release assay (functional assay, antagonistic activity); format: cell-based; details: for IC50: antagonistic activity, IC50 group in enzyme release assay, RBL cells expressing human C5aR(CD88), read-out: activity (group); for inhibitory activity (in words): functional assay of example 11, noteworthy = IC50 less than 200 nM
T1 construct: expressed in transfected cells; host or cells: rat basophilic leukemia cells (RBL)
T1 sequence (P21730 1-350): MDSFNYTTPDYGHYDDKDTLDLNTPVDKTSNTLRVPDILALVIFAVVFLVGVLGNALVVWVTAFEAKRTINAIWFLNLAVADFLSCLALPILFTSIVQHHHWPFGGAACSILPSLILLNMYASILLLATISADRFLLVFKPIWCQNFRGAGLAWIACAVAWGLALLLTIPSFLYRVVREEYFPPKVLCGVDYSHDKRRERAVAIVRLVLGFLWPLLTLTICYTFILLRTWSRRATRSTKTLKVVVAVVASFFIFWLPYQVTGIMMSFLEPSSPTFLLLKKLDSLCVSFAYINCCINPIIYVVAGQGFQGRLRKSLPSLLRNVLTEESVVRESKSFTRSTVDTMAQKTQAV

human C5aR(CD88) [3] = molecular target: T1, human C5aR(CD88); experiment: Determination of EC50-values in an enzyme release assay (agonistic activity); format: cell-based; details: for EC50: agonistic activity, no C5a added, read-out: EC50; for agonistic activity (in words): cellular assay, up to a concentration of at least 1430 nM
Procedure: The assay procedure was described by Kohl (Kohl 1997 The Anaphylatoxins. In: Dodds, A. W., Sim, R. B. (Eds.), Complement: A Practical Approach. Oxford, pp. 135-163). Basophilic leukemia cells from rats (RBL), which express the human C5aR(CD88), were cultivated in DMEM with 10% fetal bovine serum, 100 U/ml penicillin, 100 μg/ml streptomycin and 2 mM glutamine (all components of the media from Biochrome, Berlin) to confluence at 37° C. and 10% CO2. The following specifications refer to single cell culture flask having a surface of 75 cm^2. Medium was decanted from cells. Cells were washed with 10 ml PBS (Dulbecco's PBS, Biochrome) and subsequently overlayed with 3 ml Cell Dissociation Solution (CDS, Sigma). Cells were incubated for 1 min at room temperature. Subsequently, CDS was removed and the cells were further incubated for 10-15 min at 37° C. for dissociation. In the assay, 20 μl of the solution containing the compound to be tested were used. This solution should not contain more than 2.8% DMSO. For the dilution process, the compounds were diluted in ⅓ or ½ steps. To 20 μl compound solution 75 μl of the RBL-cells were added, which were treated as follows: after dissociation cells were detached and warmed at 37° C. in 10 ml HAG-CM (20 mM HEPES; 125 mM NaCl, 5 mM KCl, 1 mM CaCl2, 1 mM MgCl2, 0,5 mM Glucose, 0,25% BSA. HEPES-preparation: 2.3 g/l HEPES-salt +2.66 g/l HEPES acid). Cells were counted and centrifuged (200×g, 10 min). The cell pellet was resuspended in preheated HAG-CM (i.e. Hepes-buffer NaCl-glucose-solution with calcium and magnesium), and the cell density was adjusted to 2×10^6 cells/ml. The cells were incubated at 37° C. for 5 min. Per ml cell suspension 27 μl of a cytochalasin B-solution were added (100 μg/ml in DMSO, Sigma). The cells were incubated for further 3 min at 37° C. 75 μl of the cell suspension were added to 20 μl compound solution leading to a volume of 95 μl per well. After incubation of the cells for 10 min at 37° C. 10 μl hrC5a (10.5 nM in HAG-CM, Sigma) per well were added. The cells were incubated for additional 5 min at 37° C. The mtp was then transferred to ice and centrifuged for 3 min at 4° C. with 1200×g. 75 μl of the supernatant were added to 100 μl substrate-solution (2.7 mg/ml p-nitrophenyl-N-acetyl-β-D-glucosaminide (Sigma) in 42.5 mM Na-acetate pH 4.5). The mtp was incubated for further 60 min at 37° C. 75 μl 0.4 M glycine pH 10.4 were added per well. The mtp was transferred into a reader and the absorption at 405 nm was measured. IC50-values were obtained following the equation; y=((A-D)/(1+(x/C)^B))+D.
Determination of EC50-Values in an Enzyme Release Assay
The determination of EC50-values was performed according to the procedure given in example II, with the exception that 30 μl of the test compound need to be mixed with 75 μl of the cell suspension mentioned in example 11. Neither preincubation nor addition of C5a for stimulation of enzyme release is needed.

C5aR = molecular target: T2, C5aR (Homo sapiens, UniProt P21730); details: PMN membranes, cited from earlier work
T2 construct: measurements with isolated membranes from polymorphonuclear neutrophilic granulocytes (PMN membranes); host or cells: isolated PMN membranes (endogenous receptor)
T2 sequence (P21730 1-350): T1 sequence (P21730 1-350)

[4] = examples of WO 90/09162, read-out: IC50 (binding), WO 90/09162
[5] = examples of WO 92/12168, read-out: IC50 (binding to C5aR), WO 92/12168

| Compound | Solubility in 20 mM HEPES pH 7.4 (% of 200 μM) [1] | solubility in aqueous HEPES buffer (pH 7.4) [1] [%] | IC50 (human C5aR(CD88) [2]) [nM] | inhibitory activity (in words) (human C5aR(CD88) [2]) | agonistic activity (in words) (human C5aR(CD88) [3]) | other results |
| --- | --- | --- | --- | --- | --- | --- |
| CCCC[C@@H]1NC(=O)[C@H](Cc2c[nH]c3ccccc23)NC(=O)[C@@H](CC2CCCCC2)NC(=O)[C@@H]2CCCN2C(=O)[C@@H](NC(=O)[C@H](Cc2ccccc2)NC(=O)[C@H]2OC(OC)[C@H](NC(C)=O)[C@@H](O)[C@@H]2O)CCCNC1=O (stereo partly drawn) [Compound 4, X-Phe-[Orn-Pro-cha-Trp-Nle]; X = 2-acetamido-1-methyl-glucuronyl] (Ac-[X1]F[Orn]P[dCha]W[Nle]; lactam 3-C) | 84 % of 200 μM | 84 |  |  |  |  |
| CCCC[C@@H]1NC(=O)[C@H](Cc2c[nH]c3ccccc23)NC(=O)[C@@H](CC2CCCCC2)NC(=O)[C@@H]2CCCN2C(=O)[C@@H](NC(=O)[C@H](Cc2ccccc2)NC(C)=O)CCCNC1=O [Compound 28, Ac-Phe-[Orn-Pro-cha-Trp-Nle]] (Ac-F[Orn]P[dCha]W[Nle]; lactam 2-C) | 22 % of 200 μM | 22 | 20 to 50 | without significant loss of activity |  | inhibitory activity (in words) (human C5aR(CD88) [2]; listed as Ac-Phe-[Orn-Pro-cha-Trp-Nle]): noteworthy inhibitory activity; EC50 (human C5aR(CD88) [3]): > 1430 nM |
| CC(=O)N[C@@H](Cc1ccccc1)C(=O)N[C@H]1CCCNC(=O)[C@H](CCCNC(=N)N)NC(=O)[C@H](Cc2c[nH]c3ccccc23)NC(=O)[C@@H](CC2CCCCC2)NC(=O)[C@@H]2CCCN2C1=O [Compound 40, Ac-Phe-[Orn-Pro-cha-Trp-Arg], reference compound] | 94 % of 200 μM | 94 |  |  |  |  |
| CCCC[C@@H]1NC(=O)[C@H](Cc2c[nH]c3ccccc23)NC(=O)[C@@H](CC2CCCCC2)NC(=O)[C@@H]2CCCN2C(=O)[C@@H](NC(=O)[C@@H](N)Cc2ccccc2)CCCNC1=O [Compound 42, H-Phe-[Orn-Pro-cha-Trp-Nle]] (H-F[Orn]P[dCha]W[Nle]; lactam 2-C) | 45 % of 200 μM |  | 10 to 20 | noteworthy inhibitory activity | pure antagonists | EC50 (human C5aR(CD88) [3]): > 1430 nM |
| CCCC[C@@H]1NC(=O)[C@H](Cc2c[nH]c3ccccc23)NC(=O)[C@@H](CC2CCCCC2)NC(=O)[C@@H]2CCCN2C(=O)[C@@H](NC(=O)[C@H](Cc2ccccc2)NC(=O)[C@H](CCCCN)NC(C)=O)CCCNC1=O [Compound 43, Ac-Lys-Phe-[Orn-Pro-cha-Trp-Nle]] (Ac-KF[Orn]P[dCha]W[Nle]; lactam 3-C) | 93 % of 200 μM |  |  | noteworthy inhibitory activity | pure antagonists |  |
| CC(=O)N[C@@H](Cc1ccccc1)C(=O)N[C@@H](CCCNC1=NCCN1)C(=O)N1CCC[C@H]1C(=O)N[C@H](CC1CCCCC1)C(=O)N[C@@H](Cc1csc2ccccc12)C(=O)N[C@@H](Cc1ccccc1)C(N)=O [Compound 150, Ac-Phe-Arg(CH2—CH2)-Pro-cha-Bta-Phe-NH2] (Ac-F[Orn(2-imidazolinyl)]P[dCha][Bta]F-NH2) |  |  | 5 to 10 | noteworthy inhibitory activity | pure antagonists |  |
| (N-Ethyl)Phe-Lys-Ala-Cha-Ala-Leu-N-Methyl(D)ala-Arg-OH |  |  |  |  |  | IC50 (C5aR; [4]): 11 nM |
| (N-Methyl)Phe-Lys-Pro-cha-Phe-Phenylbutanoyl |  |  |  |  |  | IC50 (C5aR; [5]): 2600 nM |
| (N-Methyl)Phe-Lys-Pro-cha-ψ55 CH2—N(CH2CH2C6H5)}-Arg-OH |  |  |  |  |  | IC50 (C5aR; [5]): 360 nM |
| Ac-Phe-Lys-Ala-Cha-Ala-Leu-N-Methyl(D)ala-Arg-OH |  |  |  |  |  | IC50 (C5aR; [4]): 12 nM |
